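Test compounds were applied to cells in 96-well plates for 48 hours at 5 doses. TGI is the concentration that stops growth completely.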
Key:
Assay in all cases: NCI anticancer screen, dose series, 48 h
A549 NSCLC = system: A549 NSCLC
HL-60(TB) leukemia = system: HL-60(TB) leukemia
HT29 colon = system: HT29 colon
M14 melanoma = system: M14 melanoma
NCI-H226 lung = system: NCI-H226 lung
OVCAR-5 ovarian = system: OVCAR-5 ovarian
SF-295 CNS = system: SF-295 CNS
SK-MEL-2 melanoma = system: SK-MEL-2 melanoma
SK-MEL-5 melanoma = system: SK-MEL-5 melanoma
SW-620 colon = system: SW-620 colon

Row | SMILES | TGI (A549 NSCLC) [µM] | TGI (HL-60(TB) leukemia) [µM] | TGI (HT29 colon) [µM] | TGI (M14 melanoma) [µM] | TGI (NCI-H226 lung) [µM] | TGI (OVCAR-5 ovarian) [µM] | TGI (SF-295 CNS) [µM] | TGI (SK-MEL-2 melanoma) [µM] | TGI (SK-MEL-5 melanoma) [µM] | TGI (SW-620 colon) [µM]
1 | FC1=C2C3CCC(C3)C2C1(F)F (stereo not given) | > 100 | > 100 | > 100 | > 100 | > 100 | > 100 | > 100 | > 100 | > 100 | > 100
2 | CC(C)(CO[C@H]1C[C@H]2CC[C@@]1(C)C2(C)C)[N+](=O)[O-] | > 100 | 22.5 | 30.6 | 27.1 | 36.1 | 33.9 | 33.9 | 31.3 | 31.6 | 59.8
3 | CN1CCN(C(=O)c2cn(Cc3cncn3Cc3ccc4c(c3)OCO4)cc2-c2cccc3ccccc23)CC1 | > 100 | 23.2 | > 95.5 | 46 | > 100 | > 100 | 70.6 | 20.8 | 37.4 | > 100
4 | CC(O)c1nc(C#N)c(N)o1 (stereo not given) | > 100 | > 100 | > 100 | > 100 | > 100 | > 100 | > 100 | > 100 | > 100 | > 100
5 | c1cnc2c(c1)-n1cccc1C1(CCCCC1)NN2 | > 100 | > 100 | > 100 | > 100 | > 100 | > 100 | > 100 | > 100 | > 100 | > 100
6 | C=C(C)C1CC(=O)C(C)=C(O)C1 (stereo not given) | > 100 | > 100 | > 100 | > 100 | > 100 | > 100 | > 100 | > 100 | > 100 | > 100
7 | O=C(O)c1c(CC(Cc2ccc3c(c2)CCC3)C(=O)O)ccc2c1CCC2 (stereo not given) | > 100 | > 100 | > 100 | > 100 | > 100 | > 100 | > 100 | > 100 | > 100 | > 100
8 | COC(=O)[C@]1(c2cc3ccccc3n2S(=O)(=O)c2ccccc2)CC2CN(C(=O)OCc3ccccc3)C1C1OC(C)(C)OC21 (stereo not given in full) | > 100 | > 100 | > 100 | > 100 | > 100 | > 100 | > 100 | > 100 | > 100 | > 100
9 | CSC(SC)=C(C(=O)c1ccc(Cl)cc1)n1c(=O)sc2cc(Br)ccc21 | > 100 | > 100 | > 100 | > 100 | > 100 | > 100 | > 100 | > 100 | > 100 | > 100
10 | COc1cc(CCNC2=CC(=O)c3nc[nH]c3C2=O)ccc1O | 68.3 | 60.8 | 53.9 | 33.5 | 86.8 | 35.8 | 96.4 | 52.1 | 27.6 | 58.6
11 | Cc1ccccc1NC(=O)O/N=C(\Cl)C(C)C | 36.8 | > 22 | 11.7 | 12.1 | 30.7 | 40.5 | 33.7 | 32.6 | 25.9 | 4.36
12 | C[s+]1c2ccccc2c2ccccc21 | > 100 | > 100 | > 100 | > 100 | > 100 | > 100 | > 100 | > 100 | > 100 | > 100
13 | NC(=O)[C@H](Cc1ccc(O)cc1)Nc1c(O)c2c(c(O)c1Cl)C(=O)C=CC2=O | > 10 | 3.19 | 6.2 | > 7 | > 10 | > 10 | > 10 | > 10 | 3.04 | 2.82
14 | COc1cc2c(cc1O)C1Cc3ccc(OC)c(O)c3C[N+]1(C)CC2 (stereo not given) | > 100 | > 100 | > 100 | > 100 | > 100 | > 100 | > 100 | > 100 | > 100 | > 100
15 | CCOP(=O)(/C=C/n1cc(C)c(=O)[nH]c1=O)OCC | > 100 | > 100 | > 100 | > 100 | > 100 | > 100 | > 100 | > 100 | > 100 | > 100
16 | O=C(c1ccccc1)C1N=NN(Cc2ccccc2[N+](=O)[O-])C1C(=O)c1ccccc1 (stereo not given) | > 100 | > 100 | > 100 | > 100 | > 100 | > 100 | > 100 | > 100 | > 100 | > 100
17 | Cc1cc(=O)[nH]c(NNC(C#N)c2cccc([N+](=O)[O-])c2)n1 (stereo not given) | > 100 | > 100 | > 100 | > 100 | > 100 | > 100 | > 100 | > 100 | > 100 | > 100
18 | N#C/C(=C\c1ccc2[nH]ccc2c1)C(=O)NCCCCNC(=O)/C(C#N)=C/c1ccc2[nH]ccc2c1 | > 100 | > 31.6 | > 31.6 | > 31.6 | > 31.6 | > 31.6 | > 31.6 | > 31.6 | > 31.6 | > 31.6
19 | CN(CCCCCl)P(=O)(OCc1ccc([N+](=O)[O-])o1)OCC1OC(n2ccc(N)nc2=O)C(O)C1O (stereo not given) | 2.61 | 31.8 | 41.4 | > 100 | > 100 | > 100 | 57.7 | 53.1 | 1.15 | 69.6
